Measured values reported in article PMC9329325, “Design, synthesis, in vitro biological assessment and molecular modeling insights for novel 3-(naphthalen-1-yl)-4,5-dihydropyrazoles as anticancer agents with potential EGFR inhibitory activity” (Scientific Reports, 2022).

How the values were obtained:
[1] = test system: T-47D; test: MTT anti-proliferative assay, T-47D; assay type: cell-based, human; conditions: 48 h exposure, mean ± S.D. of 3 separate experiments
Procedure: (§1) The cytotoxic effects of herein prepared pyrazole- thiazol-4-one hybrids 9a-p against BC MDA-MB-231 and T-47D cell lines, obtained from American Type Culture Collection (ATCC), were determined using the MTT assay protocol. It is worth to mention that the selected cancer cell lines in this study are EGFR-expressing cell lines[25]–[28]. Doxorubicin and Erolitinib were utilized as positive control (Table 1).
(§2) All the biological assays conducted in this study were performed as reported earlier; MTT cytotoxicity[31],[32] cell cycle, Annexin V-FITC Apoptosis[34]–[36] and EGFR kinase[37] assays, (Supplementary Materials).
(§3) 1. Anti-proliferative activity
(§4) The two examined breast cancer cell lines (MDA-MB-231 and T-47D) as well as the normal breast MCF-10A cells have been obtained from American Type Culture Collection (ATCC). Cells lines were maintained as monolayers in Dulbecco’s Modified Eagle’s Medium (DMEM) supplemented with 10% FBS, 2 mM L-glutamine, 100 U/ml penicillin and 100µg/ml streptomycin sulfate. Cells were sub-cultured with trypsine /EDTA solution, counted with haemocytometer and plated onto 96-well plates (5000 cells/well) and left overnight to form a semi-confluent monolayer.
(§5) Cell monolayers were treated in quadrates with vehicle (DMSO, 0.1% v/v), test samples (thiazolyl-pyrazolines 9a-p) or Doxorubicin as positive control for an exposure time of 48 h. At the end of exposure, MTT solution in PBS (5 mg/ml) was then added to all well including no cell blank and left to incubate for 90 min. The formation of formazan crystals were visually confirmed using phase contract microscopy. DMSO (100 µl/well) was added to dissolve the formazan crystals with shaking for 10 min after which the absorbance was read at 590 nm against no cell blanks on a FLuo Star Optima microplate reader (BMG technologies, Germany). Cell proliferation was calculated comparing the OD values of the DMSO control wells and those of the samples represented as % proliferation to the control. Dose-response experiment was performed on samples producing > or =50% loss of cell proliferation using five serial 2-fold dilutions (50, 25, 12.5, 6.25 and 3.125 µM) of the sample. IC50 values (concentration of sample causing 50% loss of cell proliferation of the vehicle control) were calculated using non-linear regression curve fitting of the dose response plots on GraphPad Prism V.6.0 software. […]

[2] = test system: MDA-MB-231; test: MTT anti-proliferative assay, MDA-MB-231; assay type: cell-based, human; conditions: mean ± S.D. of 3 separate experiments
Procedure: as §1, §2, §3, §4, §5

[3] = test system: MCF-10A; test: MTT cytotoxicity toward normal breast MCF-10A cells; assay type: cell-based; conditions: Homo sapiens, 48 h exposure, mean ± S.D. of 3 separate experiments
Procedure: as §2, §3, §4, §5

[4] = test system: MDA-MB-231 cells; test: Cell cycle analysis by PI flow cytometry; assay type: cell-based, human; conditions: at IC50 concentration (9g 0.62 µM, 9k 1.14 µM), 24 h; for %Sub-G1: control 2.13%; for %S: control 32.11%
Procedure: All the biological assays conducted in this study were performed as reported earlier; MTT cytotoxicity[31],[32] cell cycle, Annexin V-FITC Apoptosis[34]–[36] and EGFR kinase[37] assays, (Supplementary Materials). […]
The two examined breast cancer cell lines (MDA-MB-231 and T-47D) as well as the normal breast MCF-10A cells have been obtained from American Type Culture Collection (ATCC). Cells lines were maintained as monolayers in Dulbecco’s Modified Eagle’s Medium (DMEM) supplemented with 10% FBS, 2 mM L-glutamine, 100 U/ml penicillin and 100µg/ml streptomycin […]
sulfate. […]
Breast cancer MDA-MB-231 cells were treated with compounds 9g and 9k for 24 h (at their IC50 concentration), and then cells were washed twice with ice-cold phosphate buffered saline (PBS). Subsequently, the treated cells were collected by centrifugation, fixed in ice-cold 70% (v/v) ethanol, washed with PBS, re-suspended with 100 μg/mL RNase, stained with 40 μg/mL PI, and analyzed by flow cytometry using FACS Calibur (Becton Dickinson, BD, Franklin Lakes, NJ, USA). The cell cycle distributions were calculated using CellQuest software 5.1 (Becton

[5] = target: EGFR (Homo sapiens, UniProt P00533); test: EGFR kinase inhibitory activity (ADP-Glo Kinase Assay)
Chain of EGFR (P00533 25-1210): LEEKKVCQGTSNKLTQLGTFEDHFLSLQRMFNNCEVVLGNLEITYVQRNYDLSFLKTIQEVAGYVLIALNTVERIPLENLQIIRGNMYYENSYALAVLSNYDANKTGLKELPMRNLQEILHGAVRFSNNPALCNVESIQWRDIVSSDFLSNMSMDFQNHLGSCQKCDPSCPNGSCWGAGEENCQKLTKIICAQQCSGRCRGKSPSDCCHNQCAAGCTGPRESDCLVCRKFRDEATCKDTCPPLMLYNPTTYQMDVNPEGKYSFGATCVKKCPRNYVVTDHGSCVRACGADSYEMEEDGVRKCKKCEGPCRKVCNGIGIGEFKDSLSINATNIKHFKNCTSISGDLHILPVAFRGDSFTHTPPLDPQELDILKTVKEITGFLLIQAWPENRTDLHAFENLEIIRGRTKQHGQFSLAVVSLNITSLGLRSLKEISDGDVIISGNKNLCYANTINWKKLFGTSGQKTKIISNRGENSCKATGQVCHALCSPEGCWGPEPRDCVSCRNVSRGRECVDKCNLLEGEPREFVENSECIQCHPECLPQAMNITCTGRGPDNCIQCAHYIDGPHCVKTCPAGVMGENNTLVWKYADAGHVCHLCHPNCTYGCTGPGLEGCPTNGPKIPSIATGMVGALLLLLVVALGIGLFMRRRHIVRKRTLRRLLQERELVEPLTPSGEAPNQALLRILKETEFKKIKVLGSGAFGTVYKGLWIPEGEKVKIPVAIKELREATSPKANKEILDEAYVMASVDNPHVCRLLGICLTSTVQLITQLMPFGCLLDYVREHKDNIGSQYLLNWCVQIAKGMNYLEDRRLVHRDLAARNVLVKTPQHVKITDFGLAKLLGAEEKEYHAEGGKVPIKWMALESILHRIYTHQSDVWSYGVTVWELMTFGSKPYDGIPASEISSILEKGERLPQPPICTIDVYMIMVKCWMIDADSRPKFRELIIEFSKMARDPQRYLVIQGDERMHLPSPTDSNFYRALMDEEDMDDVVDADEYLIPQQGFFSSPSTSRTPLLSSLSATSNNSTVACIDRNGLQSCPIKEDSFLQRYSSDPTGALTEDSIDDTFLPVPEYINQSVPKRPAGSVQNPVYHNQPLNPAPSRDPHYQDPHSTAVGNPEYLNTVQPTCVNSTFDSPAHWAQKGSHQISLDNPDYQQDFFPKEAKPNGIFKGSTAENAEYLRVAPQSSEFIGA
Procedure: Cells were then analyzed using the flow cytometer BD FACS Canto II and the results were interpreted with FlowJo7.6.4 software (Tree Star, Ashland, OR, 4. EGFR Kinase Inhibitory Activity
ADP-Glo™ Kinase Assay (Promega, Catalogue No. V3831) which is a luminescent kinase assay that measures ADP formed from a kinase reaction. ADP is converted into ATP which is converted into light by Ultra‐Glo™ Luciferase. The luminescent signal positively correlates with ADP amount and kinase activity.
Protocol: first dilute enzyme, substrate, ATP and inhibitors in Tyrosine Kinase Buffer (40 mM Tris,7.5; 20 mM MgCl2; 0.1 mg/ml BSA (bovine serum albumin); 2 mM MnCl2; 50μM DTT),
and 2 μl of substrate/ATP mix. Incubate at room temperature for 60 minutes, add 5 μl of ADP‐ Glo™ Reagent, incubate at room temperature for 40 minutes, add 10 μl of Kinase Detection reagent, incubate at room temperature for 30 minutes and finally record luminescence (Integration time 0.5‐1second).

[6] = test system: MDA-MB-231 cells; test: Annexin V-FITC/PI apoptosis assay; assay type: cell-based, human; conditions: at IC50 concentration (9g 0.62 µM, 9k 1.14 µM), 48 h; for Late apoptosis (upper right %): control 0.21%; for Early apoptosis (lower right %): control 0.73%; for Total apoptosis (L.R % + U.R %): control 0.94%
Procedure: as §2
3. Annexin V-FITC Apoptosis Assay
Phosphatidylserine externalization was assayed using Annexin V-FITC/PI apoptosis detection kit (BD Biosciences, USA) according to the manufacturer’s instructions. Breast cancer MDA-MB-231 cells were cultured to a monolayer then treated with compounds 9g and 9k at their IC50 concentration. Briefly, cells were then harvested via trypsinization, and rinsed twice in PBS followed by binding buffer. Moreover, cells were re-suspended in 100 μL of binding buffer with the addition of 1 μL of FITC-Annexin V followed by an incubation period of 30 min at 4 °C. Cells were then rinsed in binding buffer and resuspended in 150 μL of binding buffer with the addition

[7] = Homo sapiens, MDA-MB-231, 48 h, 48 h exposure

| SMILES | IC50 ([1]; Homo sapiens, T47D, 48 h) [µM] | IC50 [2, 7] [µM] | IC50 [3] [µM] | further results |
| --- | --- | --- | --- | --- |
| O=C1N=C(N2N=C(c3cccc4ccccc34)CC2c2ccc(F)cc2)S/C1=C/c1ccccc1 (stereo not shown) [Compound 9a] | > 100 | 19.8 ± 1.08 | – | IC50 [1]: > 100 µM; IC50 T-47D [1]: inactive |
| CN(C)c1ccc(/C=C2/SC(N3N=C(c4cccc5ccccc45)CC3c3ccc(F)cc3)=NC2=O)cc1 (stereo not shown) [Compound 9c] | 8.45 ± 0.27 | – | 47 ± 3.52 | – |
| COc1ccccc1/C=C1/SC(N2N=C(c3cccc4ccccc34)CC2c2ccc(Cl)cc2)=NC1=O (stereo not shown) [Compound 9l] | > 100 | 58 ± 3.16 | – | IC50 [1]: > 100 µM; IC50 T-47D [1]: inactive |
| COc1cccc2c1C(=O)c1c(O)c3c(c(O)c1C2=O)C[C@@](O)(C(=O)CO)C[C@@H]3O[C@H]1C[C@H](N)[C@H](O)[C@H](C)O1 [Doxorubicin, reference compound] | 2.73 ± 0.09 | 3.67 ± 0.2 | – | – |
| COc1cc(/C=C2/SC(N3N=C(c4cccc5ccccc45)CC3c3ccc(Cl)cc3)=NC2=O)ccc1O (stereo not shown) [Compound 9p] | 19.5 ± 0.92 | 10.8 ± 0.59 | 83.6 ± 6.74 | IC50 ([2]; 48 h exposure): 6.55 ± 0.357 µM |
| COc1ccc(/C=C2/SC(N3N=C(c4cccc5ccccc45)CC3c3ccc(Cl)cc3)=NC2=O)cc1 (stereo not shown) [Compound 9m] | 27.6 ± 1.24 | 18.9 ± 1.03 | – | – |
| CN(C)c1ccc(C=C2SC(N3N=C(c4cccc5ccccc45)CC3c3ccc(Cl)cc3)=NC2=O)cc1 (stereo not shown) [Compound 9k] | 4.92 ± 0.28 | – | 58.5 ± 4.36 | %Sub-G1 [4]: 27.86%; %S [4]: 28.45%; %G0-G1 ([4]; control 53.45%): 40.61%; IC50 [5]: 0.395 ± 0.017 µM; Late apoptosis (upper right %) [6]: 20%; Early apoptosis (lower right %) [6]: 14.22%; Total apoptosis (L.R % + U.R %) [6]: 34.22% |
| O=C1N=C(N2N=C(c3cccc4ccccc34)CC2c2ccc(Cl)cc2)S/C1=C/c1ccccc1 (stereo not shown) [Compound 9i] | > 100 | 24.7 ± 1.35 | – | IC50 [1]: > 100 µM; IC50 T-47D [1]: inactive |
| COc1cccc(/C=C2/SC(N3N=C(c4cccc5ccccc45)CC3c3ccc(Cl)cc3)=NC2=O)c1O (stereo not shown) [Compound 9n] | 67.3 ± 2.51 | 35.1 ± 1.92 | – | – |
| COc1cccc(/C=C2/SC(N3N=C(c4cccc5ccccc45)CC3c3ccc(F)cc3)=NC2=O)c1O (stereo not shown) [Compound 9f] | 27.1 ± 1.08 | – | 42.6 ± 2.81 | – |
| C#Cc1cccc(Nc2ncnc3cc(OCCOC)c(OCCOC)cc23)c1 [Erlotinib, reference compound] | – | – | – | IC50 ([1]; Homo sapiens, T47D): 3.61 ± 0.24 µM; IC50 ([2]; Homo sapiens, MDA-MB-231, 48 h exposure): 2.88 ± 0.17 µM |
| COc1ccc(C=C2SC(N3N=C(c4cccc5ccccc45)CC3c3ccc(F)cc3)=NC2=O)cc1O (stereo not shown) [Compound 9g] | 3.14 ± 0.11 | – | 31.7 ± 3.1 | %Sub-G1 [4]: 31.05%; %G2/M ([4]; control 12.31%): 2%; %S [4]: 35.43%; IC50 [5]: 0.267 ± 0.012 µM; Late apoptosis (upper right %) [6]: 23.93%; Early apoptosis (lower right %) [6]: 8.39%; Total apoptosis (L.R % + U.R %) [6]: 32.32% |
| O=C1N=C(N2N=C(c3cccc4ccccc34)CC2c2ccc(Cl)cc2)S/C1=C/c1ccc(O)cc1 (stereo not shown) [Compound 9j] | 35.1 ± 2.04 | < 10 | 65.4 ± 5.04 | IC50 ([2]; 48 h exposure): 6.24 ± 0.34 µM |
| COc1ccc(/C=C2/SC(N3N=C(c4cccc5ccccc45)CC3c3ccc(F)cc3)=NC2=O)cc1 (stereo not shown) [Compound 9e] | 12.4 ± 0.33 | 14.1 ± 0.77 | – | – |
| O=C1N=C(N2N=C(c3cccc4ccccc34)CC2c2ccc(F)cc2)S/C1=C/c1ccc(O)cc1 (stereo not shown) [Compound 9b] | 18.6 ± 0.87 | 12.2 ± 0.67 | – | – |
| COc1cc(/C=C2/SC(N3N=C(c4cccc5ccccc45)CC3c3ccc(F)cc3)=NC2=O)ccc1O (stereo not shown) [Compound 9h] | 11.4 ± 0.67 | < 10 | 79.5 ± 5.27 | IC50 ([2]; 48 h exposure): 5.82 ± 0.317 µM |
| COc1ccc(/C=C2/SC(N3N=C(c4cccc5ccccc45)CC3c3ccc(Cl)cc3)=NC2=O)cc1O (stereo not shown) [Compound 9o] | 7.36 ± 0.3 | 10.8 ± 0.59 | – | – |
| COc1ccccc1/C=C1/SC(N2N=C(c3cccc4ccccc34)CC2c2ccc(F)cc2)=NC1=O (stereo not shown) [Compound 9d] | > 100 | 45 ± 2.45 | – | IC50 [1]: > 100 µM; IC50 T-47D [1]: inactive |
